The text below walks through data of ChEMBL document CHEMBL1909294, “Translating clinical findings into knowledge in drug safety evaluation--drug induced liver injury prediction system (DILIps)” (PLoS Comput Biol, 2011).

Data set [1] concerns Hepatotoxicity.
For data set [2], the system named is Hepatotoxicity. This is another data set of the same source.
Data set [3] concerns Hepatotoxicity. This is another data set of the same source.
Data set [4] concerns Hepatotoxicity. This is another data set of the same source.
Data set [5] has as its system Hepatotoxicity. This is another data set of the same source.
The subject of data set [6] is Hepatotoxicity. This is another data set of the same source.
Data set [7] concerns Hepatotoxicity. This is another data set of the same source.
Data set [8] relates to Hepatotoxicity. The source holds these as a separate data set.
Data set [9] deals with Hepatotoxicity. This is another data set of the same source.
In data set [10] the test system is Hepatotoxicity. This is another data set of the same source.
Data set [11] relates to Hepatotoxicity. The source holds these as a separate data set.
Data set [12] has as its system Hepatotoxicity. The source holds these as a separate data set.
Data set [13] has as its system Hepatotoxicity. This is another data set of the same source.
Data set [14] deals with Hepatotoxicity. The source holds these as a separate data set.
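Throughout, for HepSE Combined Scores: combined hepatic side effect score as listed in the training data of the Drug Induced Liver Injury Prediction System (DILIps).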
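Throughout, for HepSE bilirubinemia: bilirubinemia hepatic side effect score drawn from the DILIps training data, a prediction system for drug-induced liver injury; call rule not given here.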
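Throughout, for HepSE cholecystitis: Cholecystitis-related hepatic side effect score drawn from the DILIps (drug-induced liver injury prediction) training data set; call rule not given here.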
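Throughout, for HepSE cholelithiasis: hepatic side effect score for cholelithiasis, drawn from the DILIps training data for predicting drug-induced liver injury; call rule not given here.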
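Throughout, for HepSE cirrhosis: cirrhosis hepatic side effect score taken from the DILIps (drug-induced liver injury prediction) training set; call rule not given here.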
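Throughout, for HepSE elevated liver function tests: hepatic side effect score for raised liver function tests, as recorded in the DILIps training set used for predicting drug-induced liver injury.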
Throughout, for HepSE hepatic failure: call rule not given here.
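Throughout, for HepSE hepatic necrosis: score of hepatic side effects for hepatic necrosis, drawn from the training data of DILIps, a prediction system for drug-induced liver injury; call rule not given here.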
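Throughout, for HepSE hepatitis: Hepatitis-related hepatic side effect score taken from the training data of DILIps, a prediction system for drug-induced liver injury; call rule not given here.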
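Throughout, for HepSE hepatomegaly: hepatic side effect score for hepatomegaly, taken from the training set of the DILIps drug-induced liver injury prediction system; call rule not given here.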
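Throughout, for HepSE jaundice: Jaundice-related hepatic side-effect score drawn from the training data of the DILIps (drug-induced liver injury prediction system); call rule not given here.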
Throughout, for HepSE liver disease: call rule not given here.
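Throughout, for HepSE liver fatty: hepatic side effect score for fatty liver, taken from the DILIps training set for predicting drug-induced liver injury; call rule not given here.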
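Throughout, for HepSE liver function tests abnormal: hepatic side effect score taken from the DILIps (drug-induced liver injury prediction system) training data, here covering abnormal liver function test findings.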

Take `CCOC(=O)Nc1ccc2c(c1)N(C(=O)CCN1CCOCC1)c1ccccc1S2` [MORICIZINE]: in the data set with Hepatotoxicity [1], the “HepSE_Combined Scores” value was determined as 2. Also, in the data set on Hepatotoxicity [2], the HepSE_hepatitis is reported as 1. This compound also registered a HepSE_cholecystitis in the data set on Hepatotoxicity [3] of 0. For the same compound, the “HepSE_liver function tests abnormal” value in the data set on Hepatotoxicity [4] was found to be 0. This compound also yielded a HepSE_liver disease in the data set with Hepatotoxicity [5] of 0. In the data set with Hepatotoxicity [6], this compound had a HepSE_cirrhosis of 0. Moreover, in the data set with Hepatotoxicity [7], the HepSE_jaundice stood at 1. This compound also yielded a HepSE_liver fatty in the data set with Hepatotoxicity [8] of 0. This compound also gave a HepSE_cholelithiasis in the data set with Hepatotoxicity [9] of 0. Further, the HepSE_hepatic necrosis with Hepatotoxicity [10] came out at 0. The compound further displayed a HepSE_bilirubinemia in the data set with Hepatotoxicity [11] of 0. The HepSE_hepatic failure in the data set with Hepatotoxicity [12] is 0. Moreover, the HepSE_hepatomegaly in the data set on Hepatotoxicity [13] was found to be 0. The “HepSE_elevated liver function tests” value in the data set with Hepatotoxicity [14] turned out to be 0.
With `CC(C)(C#N)c1cc(Cn2cncn2)cc(C(C)(C)C#N)c1` [ANASTROZOLE], in the data set with Hepatotoxicity [1], the “HepSE_Combined Scores” value is recorded as 2. The compound also came in with a HepSE_hepatitis with Hepatotoxicity [2] of 1. Further, the HepSE_cholecystitis with Hepatotoxicity [3] is recorded as 0. The “HepSE_liver function tests abnormal” value in the data set on Hepatotoxicity [4] was 0. The same compound gave a HepSE_liver disease with Hepatotoxicity [5] of 0. The compound also displayed a HepSE_cirrhosis with Hepatotoxicity [6] of 0. In the data set on Hepatotoxicity [7], the HepSE_jaundice stood at 0. The same compound gave a HepSE_liver fatty in the data set on Hepatotoxicity [8] of 0. In addition, the HepSE_cholelithiasis in the data set with Hepatotoxicity [9] stood at 0. The compound also yielded a HepSE_hepatic necrosis in the data set on Hepatotoxicity [10] of 0. For the same compound, in the data set with Hepatotoxicity [11], the HepSE_bilirubinemia came out at 0. This compound also had a HepSE_hepatic failure in the data set on Hepatotoxicity [12] of 0. The compound also came in with a HepSE_hepatomegaly in the data set with Hepatotoxicity [13] of 0. Moreover, in the data set on Hepatotoxicity [14], the “HepSE_elevated liver function tests” value is 1.
In the case of `Cc1onc(-c2ccccc2)c1-c1ccc(S(N)(=O)=O)cc1` [VALDECOXIB], the “HepSE_Combined Scores” value with Hepatotoxicity [1] is given as 2. Further, the HepSE_hepatitis with Hepatotoxicity [2] came to 1. In the data set on Hepatotoxicity [3], this compound yielded a HepSE_cholecystitis of 0. The “HepSE_liver function tests abnormal” value in the data set on Hepatotoxicity [4] was 0. In addition, in the data set with Hepatotoxicity [5], the HepSE_liver disease stood at 0. The same compound yielded a HepSE_cirrhosis in the data set with Hepatotoxicity [6] of 0. This compound yielded a HepSE_jaundice in the data set with Hepatotoxicity [7] of 0. In the data set with Hepatotoxicity [8], this compound displayed a HepSE_liver fatty of 0. This compound also returned a HepSE_cholelithiasis in the data set on Hepatotoxicity [9] of 1. The compound also had a HepSE_hepatic necrosis in the data set on Hepatotoxicity [10] of 0. Moreover, the HepSE_bilirubinemia with Hepatotoxicity [11] amounted to 0. The HepSE_hepatic failure in the data set with Hepatotoxicity [12] is 0. Further, the HepSE_hepatomegaly in the data set on Hepatotoxicity [13] is listed as 0. The “HepSE_elevated liver function tests” value with Hepatotoxicity [14] worked out at 0.
`C=C(c1ccc(C(=O)O)cc1)c1cc2c(cc1C)C(C)(C)CCC2(C)C` [BEXAROTENE]: the “HepSE_Combined Scores” value in the data set with Hepatotoxicity [1] was 2. The HepSE_hepatitis with Hepatotoxicity [2] amounted to 0. The HepSE_cholecystitis in the data set with Hepatotoxicity [3] was found to be 0. For the same compound, the “HepSE_liver function tests abnormal” value with Hepatotoxicity [4] was 0. In the data set with Hepatotoxicity [5], this compound registered a HepSE_liver disease of 0. Moreover, in the data set on Hepatotoxicity [6], the HepSE_cirrhosis was found to be 0. This compound also came in with a HepSE_jaundice with Hepatotoxicity [7] of 0. In the data set with Hepatotoxicity [8], the HepSE_liver fatty turned out to be 0. The HepSE_cholelithiasis in the data set with Hepatotoxicity [9] came to 0. In the data set on Hepatotoxicity [10], this compound yielded a HepSE_hepatic necrosis of 0. Moreover, in the data set on Hepatotoxicity [11], the HepSE_bilirubinemia is 1. The compound further showed a HepSE_hepatic failure in the data set on Hepatotoxicity [12] of 1. In the data set with Hepatotoxicity [13], this compound came in with a HepSE_hepatomegaly of 0. The “HepSE_elevated liver function tests” value in the data set on Hepatotoxicity [14] is recorded as 0.
`C[C@H]1O[C@H](O[C@H]2[C@H](O)[C@@H](O)[C@@H](O[C@H]3[C@H](O)[C@@H](O)C(O)O[C@@H]3CO)O[C@@H]2CO)[C@H](O)[C@@H](O)[C@@H]1N[C@H]1C=C(CO)[C@@H](O)[C@H](O)[C@H]1O` (stereo partly specified) [ACARBOSE]: in the data set with Hepatotoxicity [1], the “HepSE_Combined Scores” value came to 3. The same compound showed a HepSE_hepatitis with Hepatotoxicity [2] of 1. The HepSE_cholecystitis in the data set with Hepatotoxicity [3] is on record as 0. Further, in the data set with Hepatotoxicity [4], the “HepSE_liver function tests abnormal” value is listed as 1. Also, the HepSE_liver disease in the data set on Hepatotoxicity [5] is listed as 0. Further, the HepSE_cirrhosis with Hepatotoxicity [6] is reported as 0. For the same compound, the HepSE_jaundice in the data set with Hepatotoxicity [7] came to 1. In the data set on Hepatotoxicity [8], this compound gave a HepSE_liver fatty of 0. The compound further returned a HepSE_cholelithiasis with Hepatotoxicity [9] of 0. Further, the HepSE_hepatic necrosis in the data set on Hepatotoxicity [10] worked out at 0. This compound came in with a HepSE_bilirubinemia in the data set on Hepatotoxicity [11] of 0. The compound further displayed a HepSE_hepatic failure in the data set on Hepatotoxicity [12] of 0. The HepSE_hepatomegaly in the data set on Hepatotoxicity [13] came to 0. The “HepSE_elevated liver function tests” value in the data set with Hepatotoxicity [14] stood at 0.
Take `COCc1c(C(C)C)nc(C(C)C)c(/C=C/[C@@H](O)C[C@@H](O)CC(=O)O)c1-c1ccc(F)cc1` [CERIVASTATIN]: the “HepSE_Combined Scores” value in the data set with Hepatotoxicity [1] stood at 4. In the data set on Hepatotoxicity [2], this compound came in with a HepSE_hepatitis of 1. Besides, the HepSE_cholecystitis with Hepatotoxicity [3] stood at 0. The “HepSE_liver function tests abnormal” value in the data set on Hepatotoxicity [4] is listed as 0. The compound also displayed a HepSE_liver disease in the data set on Hepatotoxicity [5] of 0. In addition, the HepSE_cirrhosis in the data set on Hepatotoxicity [6] was found to be 1. Also, the HepSE_jaundice in the data set with Hepatotoxicity [7] turned out to be 1. In the data set on Hepatotoxicity [8], this compound returned a HepSE_liver fatty of 0. In the data set on Hepatotoxicity [9], this compound yielded a HepSE_cholelithiasis of 0. Further, the HepSE_hepatic necrosis in the data set on Hepatotoxicity [10] was 1. This compound also registered a HepSE_bilirubinemia in the data set with Hepatotoxicity [11] of 0. The HepSE_hepatic failure in the data set on Hepatotoxicity [12] worked out at 0. Also, the HepSE_hepatomegaly with Hepatotoxicity [13] is given as 0. Also, the “HepSE_elevated liver function tests” value in the data set on Hepatotoxicity [14] came out at 0.
Consider `FC(F)OC(F)C(F)(F)F` (stereo unspecified), for which the “HepSE_Combined Scores” value in the data set on Hepatotoxicity [1] turned out to be 2. This compound had a HepSE_hepatitis in the data set on Hepatotoxicity [2] of 1. In the data set with Hepatotoxicity [3], this compound registered a HepSE_cholecystitis of 0. Moreover, the “HepSE_liver function tests abnormal” value in the data set with Hepatotoxicity [4] turned out to be 0. The compound further displayed a HepSE_liver disease with Hepatotoxicity [5] of 0. The same compound displayed a HepSE_cirrhosis with Hepatotoxicity [6] of 0. In the data set with Hepatotoxicity [7], this compound came in with a HepSE_jaundice of 0. The HepSE_liver fatty with Hepatotoxicity [8] was 0. In the data set on Hepatotoxicity [9], this compound displayed a HepSE_cholelithiasis of 0. Besides, the HepSE_hepatic necrosis with Hepatotoxicity [10] turned out to be 0. For the same compound, the HepSE_bilirubinemia in the data set on Hepatotoxicity [11] worked out at 0. In the data set on Hepatotoxicity [12], this compound had a HepSE_hepatic failure of 1. This compound also showed a HepSE_hepatomegaly in the data set on Hepatotoxicity [13] of 0. Further, the “HepSE_elevated liver function tests” value in the data set with Hepatotoxicity [14] was 0.
Take `CN(C)CCC(c1ccc(Cl)cc1)c1ccccn1` (stereo unspecified) [CHLORPHENIRAMINE]: in the data set on Hepatotoxicity [1], the “HepSE_Combined Scores” value was found to be 0. Further, the HepSE_hepatitis with Hepatotoxicity [2] was found to be 0. This compound also gave a HepSE_cholecystitis with Hepatotoxicity [3] of 0. For the same compound, the “HepSE_liver function tests abnormal” value in the data set with Hepatotoxicity [4] was found to be 0. Also, in the data set on Hepatotoxicity [5], the HepSE_liver disease stood at 0. The same compound came in with a HepSE_cirrhosis with Hepatotoxicity [6] of 0. The HepSE_jaundice in the data set with Hepatotoxicity [7] is 0. The compound further had a HepSE_liver fatty in the data set on Hepatotoxicity [8] of 0. Further, the HepSE_cholelithiasis with Hepatotoxicity [9] came out at 0. For the same compound, the HepSE_hepatic necrosis in the data set on Hepatotoxicity [10] turned out to be 0. The compound further had a HepSE_bilirubinemia with Hepatotoxicity [11] of 0. Further, the HepSE_hepatic failure in the data set with Hepatotoxicity [12] is 0. Moreover, the HepSE_hepatomegaly in the data set with Hepatotoxicity [13] turned out to be 0. For the same compound, the “HepSE_elevated liver function tests” value in the data set with Hepatotoxicity [14] turned out to be 0.
`Cc1ccc(-c2cc(C(F)(F)F)nn2-c2ccc(S(N)(=O)=O)cc2)cc1` [CELECOXIB]: the “HepSE_Combined Scores” value in the data set on Hepatotoxicity [1] (Liver) was found to be 5. Besides, the HepSE_hepatitis with Hepatotoxicity [2] (Liver) was 1. Also, the HepSE_cholecystitis in the data set on Hepatotoxicity [3] (Liver) was determined as 0. For the same compound, the “HepSE_liver function tests abnormal” value in the data set on Hepatotoxicity [4] (Liver) is given as 1. Besides, the HepSE_liver disease in the data set with Hepatotoxicity [5] (Liver) came out at 0. Also, the HepSE_cirrhosis in the data set on Hepatotoxicity [6] (Liver) worked out at 0. In the data set on Hepatotoxicity [7] (Liver), this compound yielded a HepSE_jaundice of 1. For the same compound, in the data set on Hepatotoxicity [8] (Liver), the HepSE_liver fatty is 0. The same compound showed a HepSE_cholelithiasis in the data set on Hepatotoxicity [9] (Liver) of 1. In addition, the HepSE_hepatic necrosis with Hepatotoxicity [10] (Liver) is on record as 0. For the same compound, the HepSE_bilirubinemia in the data set on Hepatotoxicity [11] (Liver) is 0. The compound further registered a HepSE_hepatic failure in the data set with Hepatotoxicity [12] (Liver) of 1. The HepSE_hepatomegaly in the data set on Hepatotoxicity [13] (Liver) is listed as 0. Further, the “HepSE_elevated liver function tests” value in the data set on Hepatotoxicity [14] (Liver) is given as 0.
